Among the data in US3997527A, “Aminomethylarylmethylpenicillin derivatives” (Pfizer Inc., priority 1976, dated 1976) are MIC values, retold here.

Assay type in all cases: cell-based
The test system of one experiment is E. coli 51A266. The experiment is described as follows: In vitro antibacterial activity (MIC), E. coli 51A266. The conditions noted are these: Escherichia coli, nutrient broth. From the text: (§1) As has been previously mentioned, the penicillins of the present invention are broad spectrum antibiotics which are, unlike many penicillin analogs, highly antagonistic toward gram-negative microorganisms, in particular E. coli and Klebsiella. This unusual activity against certain gram-negative organisms may be attributed to the positioning of the aminomethyl substituent adjacent to the linking amide moiety. The marked effectiveness of this positioning can be readily seen in an antibacterial comparison of 6-(o-aminomethylphenylacetamido)penicillanic acid (o-AMP), a preferred compound of the present invention and 6-(p-aminomethylphenylacetamido)penicillanic acid (p-AMP), a compound of the previously-mentioned British Pat. 1,057,029.

In the next experiment the test system is E. coli 51A002. The experiment can be described thus: In vitro antibacterial activity (MIC), E. coli 51A002. The conditions noted are these: Escherichia coli, nutrient broth.
Text: as §1

The subject of a further experiment is Kleb. pneumoniae 53A009. The experiment is described as follows: In vitro antibacterial activity (MIC), Kleb. pneumoniae 53A009. To be noted: Klebsiella pneumoniae, nutrient broth.
Text: as §1

The subject of a further experiment is Salm. typhm. 530013. The experiment can be described thus: In vitro antibacterial activity (MIC), Salm. typhm. 530013. To be noted: nutrient broth.
Text: as §1

For a further experiment, the system named is Entero. aero. 55A004. The experiment can be described thus: In vitro antibacterial activity (MIC), Entero. aero. 55A004. To be noted: nutrient broth.
Text: as §1

The subject of another experiment is Past. mult. 59A001. The experiment can be described thus: In vitro antibacterial activity (MIC), Past. mult. 59A001. To be noted: nutrient broth.
Text: as §1

A further experiment relates to E. coli 51A215. The experiment is described as follows: In vitro antibacterial activity (MIC), E. coli 51A215. The conditions noted are these: Escherichia coli, nutrient broth.
Text: as §1

A further experiment deals with S. aureus 01A005. The experiment is described as follows: In vitro antibacterial activity (MIC), S. aureus 01A005. The conditions noted are these: Staphylococcus aureus, nutrient broth.
Text: as §1

For the next experiment, the system named is S. pyogenes 020803. The experiment can be described thus: In vitro antibacterial activity (MIC), S. pyogenes 020803. The conditions noted are these: Streptococcus pyogenes, nutrient broth.
Text: as §1

The subject of the next experiment is S. aureus 01A052. The experiment is described as follows: In vitro antibacterial activity (MIC), S. aureus 01A052. The conditions noted are these: Staphylococcus aureus, nutrient broth.
Text: as §1

Converted amounts (≈) assume the structure as drawn.

Usually MIC stands for the lowest concentration found to suppress growth. Read a high MIC as a need for much substance.

In the case of `CC1(C)S[C@@H]2C(NC(=O)Cc3ccccc3CN)C(=O)N2[C@H]1C(=O)O` (some centres unmarked) [o-AMP, 6-(o-aminomethylphenylacetamido)penicillanic acid], the minimum inhibitory concentration (MIC) in the experiment on E. coli 51A266 is 3.12 µg/mL (≈ 8.58 µM); in the experiment with E. coli 51A002 it was 200 µg/mL (≈ 550 µM); in the experiment on Kleb. pneumoniae 53A009, 3.12 µg/mL (≈ 8.58 µM); in the experiment with Salm. typhm. 530013, 3.12 µg/mL (≈ 8.58 µM); with Entero. aero. 55A004, 1.56 µg/mL (≈ 4.29 µM); against Past. mult. 59A001, 0.2 µg/mL (≈ 0.55 µM). In addition, the minimum inhibitory concentration (MIC) is 6.25 µg/mL (≈ 17.2 µM) in the experiment with E. coli 51A215, 0.2 µg/mL (≈ 0.55 µM) with S. aureus 01A005, below 0.1 µg/mL in the experiment with S. pyogenes 020803 and 1.56 µg/mL (≈ 4.29 µM) in the experiment on S. aureus 01A052.

With `CC1(C)S[C@@H]2C(NC(=O)Cc3ccc(CN)cc3)C(=O)N2[C@H]1C(=O)O` (some centres unmarked) [p-AMP, 6-(p-aminomethylphenylacetamido)penicillanic acid], the MIC in the experiment on E. coli 51A266 was 50 µg/mL (≈ 138 µM); against E. coli 51A002 it was above 200 µg/mL; in the experiment on Kleb. pneumoniae 53A009 it was 50 µg/mL (≈ 138 µM); with Salm. typhm. 530013 it was 12.5 µg/mL (≈ 34.4 µM); against Entero. aero. 55A004, above 200 µg/mL; with Past. mult. 59A001 it was 0.39 µg/mL (≈ 1.07 µM). The minimal inhibitory concentration (MIC) in the experiment with E. coli 51A215 was 6.25 µg/mL (≈ 17.2 µM); against S. aureus 01A005 it was 200 µg/mL (≈ 550 µM); against S. pyogenes 020803, 0.39 µg/mL (≈ 1.07 µM); with S. aureus 01A052, 200 µg/mL (≈ 550 µM).
